Measurements reported in US9676756B2 (PORTOLA PHARMACEUTICALS, INC., priority 2012, dated 2017).
Read-outs that look alike come from different tables or passages of the source. Each block holds one molecule with its values, some of them ahead of it.

Assays:
[1] = biological target: T1, JAK3 (Homo sapiens, UniProt P52333); assay: JAK tyrosine phosphorylation activity, Z'-LYTE FRET kinase assay; format: biochemical; details: catalytic domain recombinant kinase, Tyr6 peptide
T1 construct: 5 μl of catalytic domain recombinant Kinase enzyme+Tyr peptide substrate (Invitrogen, CA); purchased Invitrogen
Method in brief: (§1)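 Catalytic-domain recombinant kinases with Tyr6 peptide substrate and ATP, 1% DMSO, reacted 1 h at room temperature, then protease development 1 h. FRET read at ex 400 nm, em 445/520 nm; inhibition from percent substrate phosphorylation versus no-inhibitor control, IC50 by 4-parameter logistic fit.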

[2] = biological target: T2, JAK1 (Homo sapiens, UniProt P23458); assay: as above; format: biochemical; details: catalytic domain recombinant kinase, Tyr6 peptide
T2 construct: 5 μl of catalytic domain recombinant Kinase enzyme+Tyr peptide substrate (Invitrogen, CA); purchased Invitrogen
Method in brief: as §1

[3] = biological target: T3, JAK2 (Homo sapiens, UniProt O60674); assay: as above; format: biochemical; details: catalytic domain recombinant kinase, Tyr6 peptide
T3 construct: 5 μl of catalytic domain recombinant Kinase enzyme+Tyr peptide substrate (Invitrogen, CA); purchased Invitrogen
Method in brief: as §1

[4] = biological target: T4, full length active recombinant SYK enzyme (Homo sapiens, UniProt P43405); assay: SYK tyrosine phosphorylation activity, LANCE TR-FRET kinase assay; format: biochemical; details: 1 nM SYK, 100 μM ATP, 1 hour at room temperature
T4 construct: full length active recombinant SYK enzyme (Millipore, CA); purchased Millipore
Method in brief: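 Full-length active SYK (1 nM) phosphorylates 550 nM biotinylated substrate with 100 μM ATP in Tris pH 7.5, MgCl2, DTT, 3% DMSO, 1 h at room temperature. EDTA stop with Eu-anti-phosphotyrosine/SA-APC TR-FRET detection, 1 h. IC50 by non-linear regression.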

[5] = system: Src kinsase; details: cited from earlier work
[6] = system: lymphoma cell lines and primary human lymphoma samples; details: cited from earlier work
[7] = system: refractory NHL and chronic lymphocytic leukemia; details: phase II; cited from earlier work
[8] = system: FcεR1 and BCR induced Syk activation; details: cited from earlier work
[9] = system: JAK kinases; details: cited from earlier work
[10] = read-out: Syk IC50 % Inhibition

T2 sequence (P23458 875-1153 limits assumed): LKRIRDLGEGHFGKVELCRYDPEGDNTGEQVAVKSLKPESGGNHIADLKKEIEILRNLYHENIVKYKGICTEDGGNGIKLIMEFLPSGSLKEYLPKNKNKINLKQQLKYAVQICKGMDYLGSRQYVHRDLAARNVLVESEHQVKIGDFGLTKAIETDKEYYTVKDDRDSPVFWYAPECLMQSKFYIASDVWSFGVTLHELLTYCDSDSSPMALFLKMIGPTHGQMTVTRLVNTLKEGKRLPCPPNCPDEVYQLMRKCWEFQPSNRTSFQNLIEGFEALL
T3 sequence (O60674 849-1124 limits assumed): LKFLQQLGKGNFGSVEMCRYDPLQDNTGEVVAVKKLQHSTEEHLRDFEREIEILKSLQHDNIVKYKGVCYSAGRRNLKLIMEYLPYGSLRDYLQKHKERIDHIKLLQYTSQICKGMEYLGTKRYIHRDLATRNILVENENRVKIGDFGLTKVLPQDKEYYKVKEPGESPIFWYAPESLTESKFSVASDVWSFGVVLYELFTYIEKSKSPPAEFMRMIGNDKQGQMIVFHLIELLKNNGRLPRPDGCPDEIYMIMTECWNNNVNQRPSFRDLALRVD
T1 sequence (P52333 822-1111 limits assumed): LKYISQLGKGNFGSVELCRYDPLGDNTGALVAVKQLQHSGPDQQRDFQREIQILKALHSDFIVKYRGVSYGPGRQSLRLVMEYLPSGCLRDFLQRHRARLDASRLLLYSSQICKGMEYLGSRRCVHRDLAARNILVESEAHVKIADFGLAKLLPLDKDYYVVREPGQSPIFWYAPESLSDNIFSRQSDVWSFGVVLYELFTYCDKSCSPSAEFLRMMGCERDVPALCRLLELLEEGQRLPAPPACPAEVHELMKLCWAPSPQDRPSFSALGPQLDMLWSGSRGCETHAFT

JAK3 IC50 potency class [1]: ++ (1.0 uM<IC50<0.10 uM)
JAK1 IC50 potency class [2]: ++ (1.0 uM<IC50<0.10 uM)
JAK2 IC50 potency class [3]: ++ (1.0 uM<IC50<0.10 uM)
IC50 [4, 10]: > 1000 nM
Compound: CCS(=O)(=O)N1CCN(c2ccc(Nc3ncc(C(N)=O)c(NC4CC4)n3)nc2)CC1 [Compound 67, 4-(cyclopropylamino)-2-((5-(4-(ethylsulfonyl)piperazin-1-yl)pyridin-2-yl)amino)pyrimidine-5-carboxamide]

IC50 ([1]; read-out: JAK3 IC50 % Inhibition): > 1000 nM
IC50 ([2]; read-out: JAK1 IC50 % Inhibition): > 1000 nM
IC50 ([3]; read-out: JAK2 IC50 % Inhibition): > 1000 nM
IC50 [4, 10]: > 1000 nM
Compound: NC(=O)c1cnc(NC2CC2)cc1Nc1ccc(C2CCNCC2)cc1 [Compound 68, 6-(cyclopropylamino)-4-((4-(piperidin-4-yl)phenyl)amino)nicotinamide]

JAK3 IC50 potency class [1]: ++++ (0.01 uM<IC50<0.001 uM)
JAK1 IC50 potency class [2]: +++ (0.10 uM<IC50<0.01 uM)
JAK2 IC50 potency class [3]: ++++ (0.01 uM<IC50<0.001 uM)
IC50 [4]: +++ (0.10 uM<IC50<0.01 uM)
Compound: CS(=O)(=O)N1CCN(c2ccc(Nc3ncc(C(N)=O)c(NC4CC4)n3)cc2Cl)CC1 [Compound 69, 2-((3-chloro-4-(4-(methylsulfonyl)piperazin-1-yl)phenyl)amino)-4-(cyclopropylamino)pyrimidine-5-carboxamide]

Compound: COc1cc(Nc2ncc(F)c(Nc3ccc4c(n3)NC(=O)C(C)(C)O4)n2)cc(OC)c1OC [Compound R406]
activity against Src kinase [5]: not against
effect on BCR signaling ([6]; lymphoma cell lines and primary human lymphoma samples): attenuates BCR signaling
apoptosis ([6]; lymphoma cell lines): resulting in apoptosis
clinical trial outcome [7]: favorable results
inhibition of ITAM signaling [8]: inhibit ITAM signaling
activity against JAK kinases [9]: active
